The results in this text go back to PMC10060354, “Discovery of a small molecule ligand of FRS2 that inhibits invasion and tumor growth” (Cellular Oncology, 2022).

“And” between values parts separate entries of the source, which are not always exact repeats. Equal entries are not always repeated. Where two headings read alike, the source gives them in different places.

The target in experiment [1] is T1, GB1-FRS2-PTB (Homo sapiens, UniProt Q8WU20).
T1 construct: FRS2-PTB 11-140aa; 6xHis (N); made in house; host or cells: E. coli BL21 (DE3)
T1 sequence (Q8WU20 11-140): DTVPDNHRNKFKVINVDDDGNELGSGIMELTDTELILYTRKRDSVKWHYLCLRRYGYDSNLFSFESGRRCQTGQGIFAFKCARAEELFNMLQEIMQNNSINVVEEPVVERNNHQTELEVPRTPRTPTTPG
In words: Microscale thermophoresis (MST). Format: binding. As to conditions: for Kd: GB1-FRS2_PTB; for binding by MST trace analysis (result in words): signal:noise ratio > 5 counts as binding. The method, then:
Protein labeling for MST was performed with the 2nd Generation BLUE-NHS dye. GB1-FRS2_PTB- was labelled at 20 μM with 60 μM dye and incubated for 30 min in the dark at room temperature. The labelling was performed in the protein buffer without arginine supplementation. It was rebuffered to protein buffer (100 mM sodium phosphate, 50 mM NaCl, 0.5 mM EDTA, 50 mM arginine, 1 mM TCEP, pH 7.0). The dye was subsequently removed by gravitational flow chromatography and the protein concentration determined by UV-spectroscopy. The assay was established with the FGFR_PEP. […] A total volume of 10 μl of 50 nM labelled protein was added to 10 μl of the peptide dilution series for a final labelled protein concentration of 25 nM. The samples were incubated for 15 min at RT. […] Temperature was set to 25 °C. Each measurement was repeated twice. The interaction was measured in duplicates for the non-DMSO-supplemented buffer and in triplicates for DMSO-supplemented buffer. […] The samples were incubated for 15 min, and MST assessed as described above. Each measurement was repeated twice. The interaction was measured in two independent duplicates. […] The mixture was then measured for their initial fluorescence once. MST-experiments were performed with MO.Control vers. 1.6 (NanoTemper Technologies, Munich, Germany) and data analyzed with MO.Analysis vers. 2.3 (NanoTemper Technologies, Munich, Germany). Data was plotted with GraphPad Prism vers. 8.3.0 (GraphPad Software, San Diego, USA).

Experiment [2] has as its system AGS. In words: SIA, collagen I invasion. Format: cell-based. As to conditions: Homo sapiens. The method, then:
(§1) 1000—2500 cells/well in 100 μl were seeded in 96 well Corning® Spheroid microplate (CLS4520, Sigma-Aldrich) or in cell-repellent 96 well microplate (650,790, Greiner Bio-one). SIA and analysis was performed as described before. In brief: After spheroid formation (24 – 72 h after seeding), 70 µl medium was removed and replaced with the collagen mixture (2.5 mg/ml Pure Col Collagen I (Advanced Biomatrix)), DMEM 1x (from 10 × stock, Sigma, D2429) and 0.4% Sodium bicarbonate (Sigma, S8761)), resulting in a final collagen concentration of 1.75 mg/ml. Embedded spheroids were stimulated with bFGF (100 ng/ml if not otherwise stated), HGF (30 ng /ml) or EGF (20 ng/ml) and distance of invaded cells quantified 24 – 48 h after embedding. Compounds and BGJ398 were added in Dimethylsulfoxid (DMSO) and corresponding DMSO concentrations were used in control samples.

The test system of experiment [3] is SKOV3. In words: SIA, collagen I invasion. It counts as cell-based. The settings on record: Homo sapiens. The method, then: as §1
Experiment [4] concerns DAOY cells. In words: SIA, EGF-induced cell invasion. It counts as cell-based, human. As to conditions: 10 µM. The method, then: as §1
For experiment [5], the target named is T2, GB1-FRS2_PTB:FGFR_PEP (Homo sapiens, UniProt Q8WU20).
T2 construct: FRS2-PTB 11-140aa; 6xHis (N); made in house; host or cells: E. coli BL21 (DE3) for the protein
T2 sequence (Q8WU20 11-140): T1 sequence (Q8WU20 11-140)
In words: nanoDSF competition assay with the FGFR peptide. As to conditions: PTB domain:FGFR peptide 1:5; 500 μM compound. It counts as binding. The method, then:
Purified FRS2_PTB or GB1_FRS2_PTB protein tagged with 6 × Histidine residues and the B1 immunoglobulin binding domain of the streptococcal protein G (GB1) were diluted in the protein buffer (100 mM sodium phosphate, 50 mM NaCl, 0.5 mM EDTA, 50 mM arginine, 1 mM TCEP, pH 7.0) to 30 μM, GB-1 to 40 μM. FGFR_PEP, compounds or paracetamol (PARA) as negative control were dissolved at 1 mM in the protein buffer supplemented with 10% DMSO. Compound and protein were mixed at 1:1 volume ratio yielding a final concentration of 15 μM and 20 μM for FRS2_PTB/GB1_FRS2_PTB and GB1, respectively, as well as 500 μM for FGFR_PEP or compounds. The mixture was incubated for 15 min. Each compound was measured in triplicates. Protein controls were measured in six replicates in the beginning. The quality of the screen was assessed by the Z-factor. nanoDSF validation studies were performed on a Prometheus® system in high sensitivity capillaries. Samples were heated with 1 °C/min from 20 to 95 °C. Each compound was measured in triplicates. GB1-FRS2_PTB and GB1 were diluted in the protein buffer (100 mM sodium phosphate, 50 mM NaCl, 0.5 mM EDTA, 50 mM arginine, 1 mM TCEP, pH 7.0) to 30 μM. Compounds 3.3, 3.4, 3.18 as well as the 3.18 analogues were dissolved in 100% DMSO at 50 or 100 mM and further diluted to 1 mM with a final […]. FGFR_PEP was dissolved at 1 mM in the protein buffer supplemented with 10% DMSO. Compound and protein were mixed at 1:1 volume ratio yielding final concentrations of 15 μM protein and 500 μM for the compounds. FGFR_PEP was measured against both GB1-FRS2_PTB and GB1, all other compounds only against GB1-FRS2_PTB. The mixture was incubated for 15 min before measurement. The data was analyzed for both the ratio of signals at 330 and 350 nm and at 350 nm alone. For the competition assays, the PTB domain and the FGFR peptide were mixed at a 1:5 ratio, and ligand competition was assayed in the presence of 500 μM compound.

Experiment [6] deals with human cancer cell lines. In words: CellTiter-Glo viability (2D culture or 3D spheroids), cell line panel. As to conditions: for reduction of viability: DAOY, AGS and HCT116 cells, between 2.7 and 20 µM, 48 h. It counts as cell-based. The method, then: Cell viability was determined using CellTiter-Glo® 2D or 3D cell viability assays (#G9242, #G9682, Promega). 500 cells/25 µl were seeded in flat bottom (#781,091, Greiner bio-one) or U-low adhesion (#4516, Corning) 384-well plate, 24 h prior to treatment. Increasing concentrations of compounds are deposited on cells using a HP Digital Drug Dispenser with DMSO total volume normalization. After 48 h, the CellTiter-Glo® 2D or 3D reagent was added (volume/volume) following manufacturer’s instructions. Plates were incubated at RT (room temperature) under agitation for 30 min and luminescence representing the number of viable cells was quantified with a Cytation 3 imaging reader (BioTek®). Experiments were performed independently three times with three technical replicas each.

Where [7] appears, read: read-out: KD, initial fluorescence change analysis.

On to `COc1ncc(C(C)NC2CC(C)(C)NC(C)(C)C2)cc1Cl` (stereo not shown) [Compound 3.3], for which, in experiment [1] (setting [7]), the dissociation constant Kd is 3.1 µM and 4 µM. For the same molecule, the “binding by MST trace analysis (result in words)” value in experiment [1] was “no binding was detected”.

As for `CC(C)C[C@@H](CO)NCc1cc(O)c2cc(F)ccc2n1` [Compound 3.14], the Kd in experiment [1] (fitting with signal-noise ratio < 5 is considered no binding, read-out: KD, MST trace analysis) was 150 µM and 400 µM; in experiment [1] (setting [7]), 19.6 µM and 12.8 µM and 12.8 to 19.6 µM. Moreover, the “binding by MST trace analysis (result in words)” value in experiment [1] is given as “did show binding”. In addition, the inhibition at 10 µM in experiment [2] (10 µM) was about 50%; in experiment [3] (SK-OV-3, 10 µM), about 50%.

As for `O=[N+]([O-])c1c(Cl)cc(O)c2c1C1C=CCC1C(c1ccc(Cl)cc1)N2` (stereo not shown) [Compound 7], in experiment [4], the “effect on EGF-induced cell invasion (result in words)” value is given as “only moderately reduced”. The “nanoDSF competition with FGFR peptide (result in words)” value in experiment [5] is given as “negative shift in compound-mixed samples”. Moreover, the reduction of viability result in experiment [6] was “more than 50%”. In addition, the concentration for half-maximal inhibition (IC50) in experiment [6] (Homo sapiens, read-out: IC50 of cell viability, all lines) was under 20 µM. For the same molecule, the 50% effective concentration (EC50) was 4.66 µM in experiment [2] (100 ng/ml bFGF) and 4.5 µM in experiment [3] (SK-OV-3, 100 ng/ml bFGF).

`O=[N+]([O-])c1c(Cl)cc(O)c2c1C1C=CCC1C(c1ccc(Cl)cc1Cl)N2` (stereo not shown) [Compound 8]: the “nanoDSF competition with FGFR peptide (result in words)” value in experiment [5] is recorded as “negative shift in compound-mixed samples”.

On to `N#Cc1c(Cl)cc(O)c2c1C1C=CCC1C(c1ccc(Cl)cc1)N2` (stereo not shown) [Compound 14], for which, in experiment [4], the “effect on EGF-induced cell invasion (result in words)” value was “only moderately reduced”. Besides, the reduction of viability result in experiment [6] is listed as “more than 50%”.
